Values of other authors, collected in paper PMC8513935.

Tests used:
[1] = log P octanol/water from commercial databases, averaged (the ESI); conditions: Octanol (wet), 25 C
[2] = experimental, compiled by the authors from the literature (the ESI cites the sources)
[3] = derived by the authors as gas->solvent minus gas->water (a hypothetical dry solvent; the ESI), not a two-phase measurement

For COC, the log K of transfer, water to solvent [1] is listed as 0.0999 log10 K, the log K of transfer, gas to solvent ([2]; 2-Methylpropan-1-ol, 25 C) is listed as 1.54 log10 K and the log K of transfer, gas to solvent ([2]; 2-Methylpropan-2-ol, 25 C) is listed as 1.65 log10 K. The log K of transfer, gas to solvent ([2]; 3-Methylbutan-1-ol, 25 C) was 1.46 log10 K, the log K of transfer, gas to solvent ([2]; Butan-1-ol, 25 C) was 1.5 log10 K and the log K of transfer, gas to solvent ([2]; Butan-2-ol, 25 C) was 1.54 log10 K. For the same compound, the log K of transfer, gas to solvent ([2]; Chlorobenzene, 25 C) was 1.6 log10 K, the log K of transfer, gas to solvent ([2]; Hexadecane, 25 C) was 1.28 log10 K and the log K of transfer, gas to solvent ([2]; Hexane, 25 C) was 1.31 log10 K. The log K of transfer, gas to solvent ([2]; Methanol, 25 C) was 1.69 log10 K, the log K of transfer, gas to solvent ([2]; Octan-1-ol, 25 C) was 1.37 log10 K and the log K of transfer, gas to solvent ([2]; Pentan-1-ol, 25 C) was 1.45 log10 K. The log K of transfer, gas to solvent ([2]; Propan-2-ol, 25 C) was 1.56 log10 K, the log K of transfer, gas to solvent ([2]; Water, 25 C) was 1.4 log10 K and the log K of transfer, water to solvent ([3]; 2-Methylpropan-1-ol, 25 C) was 0.14 log10 K. The log K of transfer, water to solvent ([3]; 2-Methylpropan-2-ol, 25 C) was 0.25 log10 K, the log K of transfer, water to solvent ([3]; 3-Methylbutan-1-ol, 25 C) was 0.057 log10 K and the log K of transfer, water to solvent ([3]; Butan-1-ol, 25 C) was 0.0999 log10 K. The log K of transfer, water to solvent ([3]; Butan-2-ol, 25 C) was 0.14 log10 K, the log K of transfer, water to solvent ([3]; Chlorobenzene, 25 C) was 0.2 log10 K and the log K of transfer, water to solvent ([3]; Hexadecane, 25 C) was -0.115 log10 K. For the same compound, the log K of transfer, water to solvent ([3]; Hexane, 25 C) was -0.087 log10 K, the log K of transfer, water to solvent ([3]; Methanol, 25 C) was 0.29 log10 K and the log K of transfer, water to solvent ([3]; Octan-1-ol(dry), 25 C) was -0.03 log10 K. The log K of transfer, water to solvent ([3]; Pentan-1-ol, 25 C) was 0.05 log10 K and the log K of transfer, water to solvent ([3]; Propan-2-ol, 25 C) was 0.16 log10 K.

In the case of C1CCOCC1, the log K of transfer, water to solvent [1] is given as 0.795 log10 K, the log K of transfer, gas to solvent ([2]; Chloroform, 25 C) is given as 4.28 log10 K and the log K of transfer, gas to solvent ([2]; Cyclohexane, 25 C) is given as 3.23 log10 K. For the same compound, the log K of transfer, gas to solvent ([2]; Hexadecane, 25 C) was 3.02 log10 K, the log K of transfer, gas to solvent ([2]; Octan-1-ol, 25 C) was 3.22 log10 K and the log K of transfer, gas to solvent ([2]; Water, 25 C) was 2.31 log10 K. For the same compound, the log K of transfer, water to solvent ([3]; Chloroform, 25 C) was 1.97 log10 K, the log K of transfer, water to solvent ([3]; Cyclohexane, 25 C) was 0.92 log10 K and the log K of transfer, water to solvent ([3]; Hexadecane, 25 C) was 0.707 log10 K. The log K of transfer, water to solvent ([3]; Octan-1-ol(dry), 25 C) was 0.91 log10 K.

In the case of CC(C)CCC(C)C, the log K of transfer, water to solvent [1] is given as 4.8 log10 K, the log K of transfer, gas to solvent ([2]; 1,2-Dichloroethane, 25 C) is given as 3.1 log10 K and the log K of transfer, gas to solvent ([2]; Acetonitrile, 25 C) is given as 2.39 log10 K. The log K of transfer, gas to solvent ([2]; Butanone, 25 C) was 3.14 log10 K, the log K of transfer, gas to solvent ([2]; Butyronitrile, 25 C) was 2.92 log10 K and the log K of transfer, gas to solvent ([2]; CCl4, 25 C) was 3.66 log10 K. The log K of transfer, gas to solvent ([2]; Chlorobenzene, 25 C) was 3.64 log10 K, the log K of transfer, gas to solvent ([2]; Chloroform, 25 C) was 3.56 log10 K and the log K of transfer, gas to solvent ([2]; Cyclohexanone, 25 C) was 3.06 log10 K. The log K of transfer, gas to solvent ([2]; Dichloromethane, 25 C) was 3.4 log10 K, the log K of transfer, gas to solvent ([2]; Hexadecane, 25 C) was 3.31 log10 K and the log K of transfer, gas to solvent ([2]; Hexane, 25 C) was 3.64 log10 K. For the same compound, the log K of transfer, gas to solvent ([2]; Perfluoroalkane, 25 C) was 2.37 log10 K, the log K of transfer, gas to solvent ([2]; Propan-2-ol, 25 C) was 2.87 log10 K and the log K of transfer, gas to solvent ([2]; Propanone, 25 C) was 2.95 log10 K. The log K of transfer, gas to solvent ([2]; Propionitrile, 25 C) was 2.76 log10 K, the log K of transfer, gas to solvent ([2]; Tetrahydrofuran, 25 C) was 3.53 log10 K and the log K of transfer, gas to solvent ([2]; Toluene, 25 C) was 3.47 log10 K. The log K of transfer, gas to solvent ([2]; Water, 25 C) was -2.02 log10 K, the log K of transfer, water to solvent ([3]; 1,2-Dichloroethane, 25 C) was 5.12 log10 K and the log K of transfer, water to solvent ([3]; Acetone, 25 C) was 4.97 log10 K. The log K of transfer, water to solvent ([3]; Acetonitrile, 25 C) was 4.41 log10 K, the log K of transfer, water to solvent ([3]; Butanone, 25 C) was 5.16 log10 K and the log K of transfer, water to solvent ([3]; Butyronitrile, 25 C) was 4.94 log10 K. The log K of transfer, water to solvent ([3]; CCl4, 25 C) was 5.68 log10 K, the log K of transfer, water to solvent ([3]; Chlorobenzene, 25 C) was 5.66 log10 K and the log K of transfer, water to solvent ([3]; Chloroform, 25 C) was 5.58 log10 K. For the same compound, the log K of transfer, water to solvent ([3]; Cyclohexanone, 25 C) was 5.08 log10 K, the log K of transfer, water to solvent ([3]; Dichloromethane, 25 C) was 5.42 log10 K and the log K of transfer, water to solvent ([3]; Hexadecane, 25 C) was 5.33 log10 K. For the same compound, the log K of transfer, water to solvent ([3]; Hexane, 25 C) was 5.66 log10 K, the log K of transfer, water to solvent ([3]; Perfluoroalkane, 25 C) was 4.39 log10 K and the log K of transfer, water to solvent ([3]; Propan-2-ol, 25 C) was 4.89 log10 K. For the same compound, the log K of transfer, water to solvent ([3]; Propionitrile, 25 C) was 4.78 log10 K, the log K of transfer, water to solvent ([3]; Tetrahydrofuran, 25 C) was 5.55 log10 K and the log K of transfer, water to solvent ([3]; Toluene, 25 C) was 5.49 log10 K.

For CCCCF, the log K of transfer, water to solvent [1] is given as 2.29 log10 K, the log K of transfer, gas to solvent ([2]; Hexadecane, 25 C) is given as 1.77 log10 K and the log K of transfer, gas to solvent ([2]; Water, 25 C) is given as -0.29 log10 K. For the same compound, the log K of transfer, water to solvent ([3]; Hexadecane, 25 C) was 2.06 log10 K.

For CO, the log K of transfer, water to solvent [1] is listed as -0.755 log10 K, the log K of transfer, water to solvent ([3]; 1,2-Dichloroethane, 25 C) is listed as -1.58 log10 K and the log K of transfer, water to solvent ([3]; 2-Methylpropan-1-ol, 25 C) is listed as -0.58 log10 K. For the same compound, the log K of transfer, water to solvent ([3]; 2-Methylpropan-2-ol, 25 C) was -0.35 log10 K, the log K of transfer, water to solvent ([3]; 3-Methylbutan-1-ol, 25 C) was -0.672 log10 K and the log K of transfer, water to solvent ([3]; Acetone, 25 C) was -0.71 log10 K. For the same compound, the log K of transfer, water to solvent ([3]; Acetonitrile, 25 C) was -0.81 log10 K, the log K of transfer, water to solvent ([3]; Benzene, 25 C) was -1.85 log10 K and the log K of transfer, water to solvent ([3]; Butan-1-ol, 25 C) was -0.72 log10 K. The log K of transfer, water to solvent ([3]; Butan-2-ol, 25 C) was -0.45 log10 K, the log K of transfer, water to solvent ([3]; Butanone, 25 C) was -0.93 log10 K and the log K of transfer, water to solvent ([3]; Butyronitrile, 25 C) was -1.06 log10 K. The log K of transfer, water to solvent ([3]; CCl4, 25 C) was -2.24 log10 K, the log K of transfer, water to solvent ([3]; Chlorobenzene, 25 C) was -2.07 log10 K and the log K of transfer, water to solvent ([3]; Chloroform, 25 C) was -1.33 log10 K. For the same compound, the log K of transfer, water to solvent ([3]; Cyclohexane, 25 C) was -2.77 log10 K, the log K of transfer, water to solvent ([3]; Decan-1-ol, 25 C) was -1.21 log10 K and the log K of transfer, water to solvent ([3]; Di-n-butyl ether, 25 C) was -1.8 log10 K. For the same compound, the log K of transfer, water to solvent ([3]; Dichloromethane, 25 C) was -1.45 log10 K, the log K of transfer, water to solvent ([3]; Diethyl Ether, 25 C) was -1.26 log10 K and the log K of transfer, water to solvent ([3]; Ethanol, 25 C) was -0.34 log10 K. For the same compound, the log K of transfer, water to solvent ([3]; Hexadecane, 25 C) was -2.77 log10 K, the log K of transfer, water to solvent ([3]; Hexane, 25 C) was -2.59 log10 K and the log K of transfer, water to solvent ([3]; Methanol, 25 C) was -0.14 log10 K. For the same compound, the log K of transfer, water to solvent ([3]; Octan-1-ol(dry), 25 C) was -0.9 log10 K, the log K of transfer, water to solvent ([3]; Pentan-1-ol, 25 C) was -0.67 log10 K and the log K of transfer, water to solvent ([3]; Propan-1-ol, 25 C) was -0.59 log10 K. The log K of transfer, water to solvent ([3]; Propan-2-ol, 25 C) was -0.46 log10 K, the log K of transfer, water to solvent ([3]; Tetrahydrofuran, 25 C) was -0.9 log10 K and the log K of transfer, water to solvent ([3]; Toluene, 25 C) was -2.14 log10 K.

For C, the log K of transfer, water to solvent [1] is listed as 1.09 log10 K, the log K of transfer, water to solvent ([3]; Acetone, 25 C) is listed as 1.24 log10 K and the log K of transfer, water to solvent ([3]; Butan-1-ol, 25 C) is listed as 1.15 log10 K. For the same compound, the log K of transfer, water to solvent ([3]; CCl4, 25 C) was 1.32 log10 K, the log K of transfer, water to solvent ([3]; Chlorobenzene, 25 C) was 1.13 log10 K and the log K of transfer, water to solvent ([3]; Decan-1-ol, 25 C) was 1.05 log10 K. The log K of transfer, water to solvent ([3]; Diethyl Ether, 25 C) was 1.48 log10 K, the log K of transfer, water to solvent ([3]; Ethanol, 25 C) was 1.17 log10 K and the log K of transfer, water to solvent ([3]; Heptan-1-ol, 25 C) was 1.11 log10 K. The log K of transfer, water to solvent ([3]; Hexadecane, 25 C) was 1.14 log10 K, the log K of transfer, water to solvent ([3]; Hexan-1-ol, 25 C) was 1.12 log10 K and the log K of transfer, water to solvent ([3]; Hexane, 25 C) was 1.44 log10 K. For the same compound, the log K of transfer, water to solvent ([3]; Methanol, 25 C) was 1.19 log10 K, the log K of transfer, water to solvent ([3]; Octan-1-ol(dry), 25 C) was 1.08 log10 K and the log K of transfer, water to solvent ([3]; Pentan-1-ol, 25 C) was 1.13 log10 K. The log K of transfer, water to solvent ([3]; Perfluoroalkane, 25 C) was 1.42 log10 K, the log K of transfer, water to solvent ([3]; Propan-1-ol, 25 C) was 1.17 log10 K and the log K of transfer, water to solvent ([3]; Propan-2-ol, 25 C) was 1.13 log10 K. The log K of transfer, water to solvent ([3]; Tetrahydrofuran, 25 C) was 1.28 log10 K.
